Values after ≈ are worked out from the molar mass of the structure shown. Where two headings read alike, the source gives them in different places.
Columns and labels:
[1] = system: Pseudomonas aeruginosa ATCC 15692; assay: Antibacterial MIC, microdilution susceptibility test (CLSI); type: cell-based
From the text: (§1) The synthesized linezolid conjugates (3a–k, 5a–f, 7a–c, 9a–c, 11a–f, 13, and 15) were subjected for antimicrobial properties determination against Gram-positive (Staphylococcus aureus ATCC 6538, Bacillus subtilis ATCC 6633) and Gram-negative (Pseudomonas aeruginosa ATCC 15692, Escherichia coli ATCC 47076) bacteria by the standard technique.
(§2) Antibacterial properties of the synthesized compounds (3a–k, 5a–f, 7a–c, 9a–c, 11a–f, 13 and 15) were screened against Gram-positive (Staphylococcus aureus ATCC 6538, Bacillus subtilis ATCC 6633) and Gram-negative (Pseudomonas aeruginosa ATCC 15,692 and Escherichia coli ATCC 47076) bacteria utilizing the standard technique. Linezolid was used as a standard reference/drug in the current study. The tested bacterial strains were obtained from MERCIN Center, Faculty of Agriculture, Ain Shams University, Cairo, Egypt.
(§3) To determine the antibacterial activity, stock solutions of the tested compounds and standard reference were prepared with up to 100% DMSO and stored at […]. If necessary, the solutions were heated to 40–60 °C before testing to facilitate complete dissolution. Double distilled water was used in all dilutions prepared. […] A microdilution susceptibility test was used for MIC determination (Mueller–Hinton broth in 96-well plates) according to the CLSI (the Clinical and Laboratory Standards Institute, Malvern, PA, USA). The bacterial inoculum was adjusted to approximately 2.5–3 × 10^4 cells/mL in Mueller–Hinton broth and incubated in a ratio of 1:1 with the test derivatives in polystyrene 96-well flat-bottom microplates. Positive growth control (without test derivatives) and negative control (without bacteria) were included. The microplates were placed in an incubator set to 37 °C for 24 h. Absorbance was measured at 620 nm at the end of the incubation period. The cut-off level for follow-up studies was defined as a minimum of 90% inhibition of growth compared to the untreated sample. Experiments were conducted once in triplicate. For selected compounds, minimum inhibitory concentration (MIC) values were determined by dose–response experiments. Experiments were performed at least twice, in triplicate per concentration tested.

[2] = system: Escherichia coli ATCC 47076; assay: as above; type: cell-based
From the text: as §1, §2, §3

[3] = system: Staphylococcus aureus ATCC 6538; assay: as above; type: cell-based
From the text: as §1, §2, §3

[4] = system: Bacillus subtilis ATCC 6633; assay: as above; type: cell-based
From the text: as §1, §2, §3

[5] = system: Staphylococcus aureus ATCC 6538; assay: microbe, parasite or virus in culture; set-up: species or system bacteria; Broth microdilution MIC in Mueller-Hinton broth, absorbance at 620 nm; settings: ATCC6538, 24 h, read-out: Observed MIC, uM (S. aureus)
From the text: as §3, with “Antibacterial properties of the synthesized compounds (3a–k, 5a–f, 7a–c, 9a–c, 11a–f, 13 and 15) were screened against Gram-positive (Staphylococcus aureus ATCC 6538, Bacillus subtilis ATCC 6633) and Gram-negative (Pseudomonas aeruginosa ATCC 15,692 and Escherichia coli ATCC 47076) bacteria utilizing the standard technique. Linezolid was used as a standard reference/drug in the current study. The tested bacterial strains were obtained from MERCIN Center, Faculty of Agriculture, Ain Shams University, Cairo, Egypt. To” for “To”

[6] = system: Bacillus subtilis ATCC 6633; assay: microbe, parasite or virus in culture; set-up: species or system bacteria; Broth microdilution MIC in Mueller-Hinton broth, absorbance at 620 nm; settings: ATCC6633, 24 h, read-out: Observed MIC, uM (B. subtilis)
From the text: as §3, with “Antibacterial properties of the synthesized compounds (3a–k, 5a–f, 7a–c, 9a–c, 11a–f, 13 and 15) were screened against Gram-positive (Staphylococcus aureus ATCC 6538, Bacillus subtilis ATCC 6633) and Gram-negative (Pseudomonas aeruginosa ATCC 15,692 and Escherichia coli ATCC 47076) bacteria utilizing the standard technique. Linezolid was used as a standard reference/drug in the current study. The tested bacterial strains were obtained from MERCIN Center, Faculty of Agriculture, Ain Shams University, Cairo, Egypt. To” for “To”

[7] = ATCC15692, Mueller–Hinton broth, 37 °C, 24 h, read-out: MIC, μg/mL ± SE, P. Aeruginosa (ATCC 15692)
[8] = ATCC15692, value in parentheses, read-out: MIC (μmol), P. Aeruginosa (ATCC 15692) (converted)
[9] = ATCC47076, Mueller–Hinton broth, 37 °C, 24 h, read-out: MIC, μg/mL ± SE, E. Coli (ATCC 47076)
[10] = ATCC47076, value in parentheses, read-out: MIC (μmol), E. Coli (ATCC 47076) (converted)
[11] = Staphylococcus aureus, ATCC6538, 24 h, Mueller–Hinton broth, 37 °C, 24 h, read-out: MIC, μg/mL ± SE, S. Aureus (ATCC 6538)
[12] = Bacillus subtilis, ATCC6633, 24 h, Mueller–Hinton broth, 37 °C, 24 h, read-out: MIC, μg/mL ± SE, B. Subtilis (ATCC 6633)
[13] = Staphylococcus aureus, ATCC6538, as quoted in running text, read-out: MIC against S. aureus
[14] = Staphylococcus aureus, ATCC6538, value in parentheses, read-out: MIC (μmol), S. Aureus (ATCC 6538) (converted)
[15] = Bacillus subtilis, ATCC6633, as quoted in running text, read-out: MIC against B. subtilis
[16] = Bacillus subtilis, ATCC6633, value in parentheses, read-out: MIC (μmol), B. Subtilis (ATCC 6633) (converted)

| SMILES | MIC [1, 7] [µg/mL] | MIC [1, 8] [µM] | MIC [2, 9] [µg/mL] | MIC [2, 10] [µM] | MIC [3, 11] [µg/mL] | MIC [4, 12] [µg/mL] | MIC [5] [µM] | MIC [6] [µM] | MIC [3, 13] [µM] | MIC [3, 14] [µM] | MIC ([3]; read-out: MIC against S. aureus) [µM] | MIC [4, 15] [µM] | MIC [4, 16] [µM] | MIC ([4]; read-out: MIC against B. subtilis) [µM] | MIC ([1]; ATCC15692, read-out: MIC against P. aeruginosa) [µM] |
| --- | --- | --- | --- | --- | --- | --- | --- | --- | --- | --- | --- | --- | --- | --- | --- |
| O=C(CNC(=O)OCc1ccccc1)NC[C@H]1CN(c2ccc(N3CCOCC3)c(F)c2)C(=O)O1 [Compound 3a, Benzyl (S)-(2-(((3-(3-fluoro-4-morpholinophenyl)-2-oxooxazolidin-5-yl)methyl)amino)-2-oxoethyl)carbamate] | 64 ± 1.4 | 132 | 32 ± 1 | 65.8 | 16 ± 2.1 | 4 ± 0.3 | 32.9 (≈ 16 µg/mL) | 8.22 (≈ 4 µg/mL) |  |  |  |  |  |  |  |
| C[C@H](NC(=O)OCc1ccccc1)C(=O)NC[C@H]1CN(c2ccc(N3CCOCC3)c(F)c2)C(=O)O1 [Compound 3b, Benzyl ((S)-1-((((S)-3-(3-fluoro-4-morpholinophenyl)-2-oxooxazolidin-5-yl)methyl)amino)-1-oxopropan-2-yl)carbamate] | 64 ± 1.9 | 128 | 32 ± 2.5 | 63.9 | 32 ± 1.5 | 32 ± 2.1 | 63.9 (≈ 32 µg/mL) | 63.9 (≈ 32 µg/mL) |  |  |  |  |  |  |  |
| CC(C)[C@H](NC(=O)OCc1ccccc1)C(=O)NC[C@H]1CN(c2ccc(N3CCOCC3)c(F)c2)C(=O)O1 [Compound 3c, Benzyl ((S)-1-((((S)-3-(3-fluoro-4-morpholinophenyl)-2-oxooxazolidin-5-yl)methyl)amino)-3-methyl-1-oxobutan-2-yl)carbamate] | 64 ± 2.9 | 121 | 32 ± 1.6 | 60.5 | 32 ± 1.1 | 32 ± 2.7 | 60.5 (≈ 32 µg/mL) | 60.5 (≈ 32 µg/mL) |  |  |  |  |  |  |  |
| CSCC[C@H](NC(=O)OCc1ccccc1)C(=O)NC[C@H]1CN(c2ccc(N3CCOCC3)c(F)c2)C(=O)O1 [Compound 3d, Benzyl ((S)-1-((((S)-3-(3-fluoro-4-morpholinophenyl)-2-oxooxazolidin-5-yl)methyl)amino)-4-(methylthio)-1-oxobutan-2-yl)carbamate] | 64 ± 3.1 | 114 | 32 ± 2 | 57.1 | 32 ± 1.6 |  | 57.1 (≈ 32 µg/mL) | 57.1 (≈ 32 µg/mL) |  |  |  |  |  |  |  |
| CC(C)[C@H](NC(=O)OC(C)(C)C)C(=O)NC[C@H]1CN(c2ccc(N3CCOCC3)c(F)c2)C(=O)O1 [Compound 3h, Tert-butyl ((S)-1-((((S)-3-(3-fluoro-4-morpholinophenyl)-2-oxooxazolidin-5-yl)methyl)amino)-3-methyl-1-oxobutan-2-yl)carbamate] | 32 ± 0.5 | 64.7 | 32 ± 1.1 | 64.7 | 32 ± 1.3 | 32 ± 0.7 | 64.7 (≈ 32 µg/mL) | 64.7 (≈ 32 µg/mL) |  |  |  |  |  |  |  |
| CSCC[C@H](NC(=O)OC(C)(C)C)C(=O)NC[C@H]1CN(c2ccc(N3CCOCC3)c(F)c2)C(=O)O1 [Compound 3i, Tert-butyl ((S)-1-((((S)-3-(3-fluoro-4-morpholinophenyl)-2-oxooxazolidin-5-yl)methyl)amino)-4-(methylthio)-1-oxobutan-2-yl)carbamate] | 32 ± 0.8 | 60.8 | 32 ± 0.5 | 60.8 | 32 ± 2.1 | 32 ± 1.4 | 60.8 (≈ 32 µg/mL) | 60.8 (≈ 32 µg/mL) |  |  |  |  |  |  |  |
| CC[C@H](C)[C@H](NC(=O)OC(C)(C)C)C(=O)NC[C@H]1CN(c2ccc(N3CCOCC3)c(F)c2)C(=O)O1 [Compound 3k, Tert-butyl ((2S,3S)-1-((((S)-3-(3-fluoro-4-morpholinophenyl)-2-oxooxazolidin-5-yl)methyl)amino)-3-methyl-1-oxopentan-2-yl)carbamate] | 32 ± 1.3 | 62.9 | 32 ± 2.1 | 62.9 | 32 ± 2.1 | 32 ± 1.3 | 62.9 (≈ 32 µg/mL) | 62.9 (≈ 32 µg/mL) |  |  |  |  |  |  |  |
| O=C(NC[C@H]1CN(c2ccc(N3CCOCC3)c(F)c2)C(=O)O1)c1ccc(F)cc1 [Compound 5b, (S)-4-Fluoro-N-((3-(3-fluoro-4-morpholinophenyl)-2-oxooxazolidin-5-yl)methyl) benzamide] | 32 ± 1.2 | 76.7 | 32 ± 2.4 | 76.7 | 4 ± 0.1 | 1 ± 0.1 |  |  | 9.34 to 10 | 9.58 | 9.583 | 2.33 to 2.5 | 2.4 | 2.396 |  |
| O=C(NC[C@H]1CN(c2ccc(N3CCOCC3)c(F)c2)C(=O)O1)c1ccc(Cl)cc1 [Compound 5c, (S)-4-Chloro-N-((3-(3-fluoro-4-morpholinophenyl)-2-oxooxazolidin-5-yl)methyl) benzamide] | 32 ± 1.9 | 73.8 | 32 ± 0.7 | 73.8 | 8 ± 0.3 | 2 ± 0.1 | 18.4 (≈ 8 µg/mL) |  |  |  |  | 4.61 to 5 | 4.61 |  |  |
| O=C(NC[C@H]1CN(c2ccc(N3CCOCC3)c(F)c2)C(=O)O1)c1ccc([N+](=O)[O-])cc1 [Compound 5d, (S)-N-((3-(3-Fluoro-4-morpholinophenyl)-2-oxooxazolidin-5-yl)methyl)-4-nitro benzamide] | 32 ± 1.6 | 72 | 32 ± 2.2 | 72 | 2 ± 0.1 | 1 ± 0.1 |  |  | 4.5 | 4.5 |  | 2.25 | 2.25 |  |  |
| O=C1O[C@@H](CNCc2ccc(F)cc2)CN1c1ccc(N2CCOCC2)c(F)c1 [Compound 11a, (S)-3-(3-Fluoro-4-morpholinophenyl)-5-[{(4-fluorobenzyl)amino}methyl] oxazolidin-2-one] | 32 ± 2.2 | 79.3 | 32 ± 2.5 | 79.3 | 32 ± 2.7 | 32 ± 1.2 | 79.3 (≈ 32 µg/mL) | 79.3 (≈ 32 µg/mL) |  |  |  |  |  |  |  |
| CC(=O)NC[C@H]1CN(c2ccc(N3CCOCC3)c(F)c2)C(=O)O1 [Linezolid] | 32 ± 0.7 | 94.9 | 8 ± 0.2 | 23.7 | 2 ± 0.1 | 0.25 ± 0.01 |  |  | 5.93 | 5.93 |  |  | 0.741 |  | 94.9 |

Source: article PMC8880098, “Synthesis, Antibacterial Evaluation, and Computational Studies of a Diverse Set of Linezolid Conjugates” (Pharmaceuticals, 2022)
